Data: patent publication US20040106626A1, “6-Membered unsaturated heterocyclic compounds useful for selective inhibition of the coagulation cascade” (Pharmacia Corporation, priority 2001, published 2004)

How the values were obtained:
Assay type in all cases: biochemical
[1] = target: T1, Human thrombin (Homo sapiens, UniProt P00734); test: Thrombin assay (chromogenic substrate); conditions: reported only as less than or greater than 30 uM; read-out: Thrombin (II) IC50
T1 construct: converts prothrombin (II) to thrombin (IIa); purchased Calbiochem, La Jolla, Calif
Procedure: Percent inhibition of thrombin activity is calculated from OD405 nm value from the experimental and control sample.
(§1) Recombinant human VIIa was purchased from American Diagnostica, Greenwich CT and chromogenic substrate N-methylsulfonyl-D-phe-gly-arg-p-nitroaniline was prepared by American Peptide Company, Inc., Sunnyvale, Calif. Factor Xa was obtained from Enzyme Research Laboratories, South Bend Ind., thrombin from Calbiochem, La Jolla, Calif., and trypsin and L-BAPNA from Sigma, St. Louis Mo.

[2] = target: T2, recombinant soluble tissue factor and recombinant human factor VIIa (TF-VIIa) (Homo sapiens, UniProt P08709); test: TF-VIIa assay (chromogenic substrate hydrolysis); conditions: reported only as less than or greater than 0.1 uM
T2 construct: conversion of coagulation factor VII to VIIa by factor Xa; purchased American Diagnostica, Greenwich CT; host or cells: soluble TF made in house in E. coli
T2 sequence (P08709 213-466 limits assumed): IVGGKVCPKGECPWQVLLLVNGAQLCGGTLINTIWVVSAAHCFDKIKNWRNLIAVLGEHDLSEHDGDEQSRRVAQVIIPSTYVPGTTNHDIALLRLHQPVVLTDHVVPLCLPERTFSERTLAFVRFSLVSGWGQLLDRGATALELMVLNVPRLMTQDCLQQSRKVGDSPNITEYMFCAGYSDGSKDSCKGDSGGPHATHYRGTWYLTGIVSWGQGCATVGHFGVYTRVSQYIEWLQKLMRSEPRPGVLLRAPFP
T2 sequence (P08709 61-212 limits assumed): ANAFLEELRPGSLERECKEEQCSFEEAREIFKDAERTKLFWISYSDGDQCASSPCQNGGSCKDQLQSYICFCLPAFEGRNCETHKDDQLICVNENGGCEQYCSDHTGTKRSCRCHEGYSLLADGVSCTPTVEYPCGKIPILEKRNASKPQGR
T2 sequence (P13726 33-251 partner limits assumed): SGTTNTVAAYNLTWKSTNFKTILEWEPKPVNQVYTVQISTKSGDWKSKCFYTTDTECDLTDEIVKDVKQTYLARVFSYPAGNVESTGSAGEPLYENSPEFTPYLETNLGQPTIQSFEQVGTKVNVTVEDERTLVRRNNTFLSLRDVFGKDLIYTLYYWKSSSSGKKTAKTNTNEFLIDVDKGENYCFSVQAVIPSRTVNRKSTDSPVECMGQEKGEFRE
Procedure: In this assay 100 nM recombinant soluble tissue factor and 2 nM recombinant human factor VIIa are added to a 96-well assay plate containing 0.4 mM of the substrate, N-methylsulfonyl-D-phe-gly-arg-p-nitroaniline and either inhibitor or buffer (5 mM CaCl2, 50 mM Tris-HCl, pH 8.0, 100 mM NaCl, 0.1% BSA). […] Percent inhibition of TF-VIIa activity is calculated from OD405 nm value from the experimental and control sample.
as §1

[3] = test system: Normal human pooled plasma; test: Prothrombin time (PT) clotting assay; conditions: concentration at which prothrombin time is prolonged by 2x normal, reported as less than or greater than 50 uM
Procedure: The prothrombin time (PT) assay is a clotting assay that is used to determine deficiencies of clotting factor activity in the extrinsic pathway. The assay measures time to clotting after the addition of thromboplastin (human tissue factor). Normal human pooled plasma is incubated with 100 uM compound or saline in a coagulation machine. Thromboplastin is added and time to clotting is measured. Compounds with greater than 3×normal PT of 11.0 seconds are further analyzed by concentration response to determine at what concentration the prothrombin time is prolonged by 2×normal.

[4] = target: T3, Human factor Xa (Homo sapiens, UniProt P00742); test: Xa assay (chromogenic substrate S-2765); conditions: reported only as less than or greater than 30 uM; read-out: Factor Xa (II) IC50
T3 construct: purchased Enzyme Research Laboratories, South Bend Ind
T3 sequence (P00742 235-488 limits assumed): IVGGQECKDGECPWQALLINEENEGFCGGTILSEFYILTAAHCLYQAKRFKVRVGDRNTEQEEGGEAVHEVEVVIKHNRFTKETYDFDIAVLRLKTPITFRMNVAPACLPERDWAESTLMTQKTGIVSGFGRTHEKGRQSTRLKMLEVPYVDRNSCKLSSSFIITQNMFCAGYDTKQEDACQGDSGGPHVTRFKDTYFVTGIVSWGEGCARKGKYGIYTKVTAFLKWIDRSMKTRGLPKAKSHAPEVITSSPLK
T3 sequence (P00742 41-179 limits assumed): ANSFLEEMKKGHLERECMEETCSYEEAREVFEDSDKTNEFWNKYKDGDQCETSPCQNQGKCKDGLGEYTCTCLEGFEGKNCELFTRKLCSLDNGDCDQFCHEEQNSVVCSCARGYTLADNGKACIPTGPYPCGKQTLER
Procedure: Human factor Xa (0.3 nM) and 0.15 mM -a-Benzyloxycarbonyl-D-arginyl-L-glycyl-L-arginine-p-nitroaniline-dihydrochloride (S-2765) are added to a 96-well assay plate containing either inhibitor or buffer (50 mM Tris-HCl, pH 8.0, 100 mM NaCl, 0.1% BSA). The reaction, in a final volume of 100 ul is measured immediately at 405 nm to determine background absorbance. The plate is incubated at room temperature for 60 min, at which time the rate of hydrolysis of the substrate is measured by monitoring the reaction at 405 nm for the release of p-nitroaniline. Percent inhibition of Xa activity is calculated from OD405 nm value from the experimental and control sample.
Recombinant soluble TF, consisting of amino acids 1-219 of the mature protein sequence was expressed in E. coli and purified using a Mono Q Sepharose FPLC. Recombinant human VIIa was purchased from American Diagnostica, Greenwich CT and chromogenic substrate N-methylsulfonyl-D-phe-gly-arg-p-nitroaniline was prepared by American Peptide Company, Inc., Sunnyvale, Calif. Factor Xa was obtained from Enzyme Research Laboratories, South Bend Ind., thrombin from Calbiochem, La Jolla, Calif., and trypsin and L-BAPNA from Sigma, St. Louis Mo. The chromogenic substrates S-2765 and S-2238 were purchased from Chromogenix, Sweden.

IC50 [1]	IC50 [2]	IC50 [4]	Compound	PT (Prothrombin time) 2xPT [3]
< 30 µM	< 0.1 µM	> 30 µM	CC(C)Nc1ncc(-c2cc(N)cc(C(=O)NC(C)c3ccccc3)c2)n(CC(=O)NCc2ccc(C(=N)N)cc2)c1=O (racemic) [Example 56]	<50.0 µM
> 30 µM	< 0.1 µM	> 30 µM	COC(=O)c1cc(N)cc(-c2c(Br)nc(NC(C)C)c(=O)n2CC(=O)NCc2ccc(C(=N)N)cc2)c1 [Example 4, Methyl 3-amino-5-[1-[2-({4-[amino(imino)methyl]benzyl}amino)-2-oxoethyl]-3-bromo-5-(isopropylamino)-6-oxo-1,6-dihydropyrazin-2-yl]benzoate]	>50.0 µM
> 30 µM	< 0.1 µM	> 30 µM	CC(C)Nc1ncc(-c2cc(N)cc(C(F)(F)F)c2)n(CC(=O)NCc2ccc(C(=N)N)cc2)c1=O [Example 18]	<50.0 µM
> 30 µM	< 0.1 µM	> 30 µM	CNc1ncc(-c2cc(N)cc(N)c2)n(CC(=O)NCc2ccc(C(=N)N)cc2)c1=O [Example 35]	<50.0 µM
> 30 µM	> 0.1 µM	> 30 µM	CC(C)Nc1ncc(-c2cc(N)cc(C(F)(F)F)c2)n(CC(=O)NCc2ccc(C(=N)N)c(O)c2)c1=O [Example 49]	<50.0 µM
< 30 µM	< 0.1 µM	> 30 µM	CC(C)Nc1ncc(-c2cc(N)cc(NC(=O)C(C)C)c2)n(CC(=O)NCc2ccc(C(=N)N)cc2)c1=O [Example 50, N-{3-amino-5-[1-[2-({4-[amino(imino)methyl]benzyl}amino)-2-oxoethyl]-5-(isopropylamino)-6-oxo-1,6-dihydropyrazin-2-yl]phenyl}-2-methylpropanamide]	<50.0 µM
> 30 µM	> 0.1 µM	> 30 µM	CC(C)Nc1ncc(-c2cc(N)cc(C(F)(F)F)c2)n(CC(=O)NCc2ccc(C(=N)N)c(F)c2F)c1=O [Example 51]	<50.0 µM
> 30 µM	< 0.1 µM	> 30 µM	COc1cc(N)cc(-c2cnc(NC(C)C)c(=O)n2CC(=O)NCc2ccc(C(=N)N)cc2)c1 [Example 53, N-{4-[Amino(imino)methyl]benzyl}-2-[6-(3-amino-5-methoxyphenyl)-3-(isopropylamino)-2-oxopyrazin-1 (2H)-yl]acetamide]	<50.0 µM
> 30 µM	< 0.1 µM	> 30 µM	CC(C)Nc1ncc(-c2cc(N)cc(O)c2)n(CC(=O)NCc2ccc(C(=N)N)cc2)c1=O [Example 54]	<50.0 µM
< 30 µM	< 0.1 µM	> 30 µM	CC(C)Nc1ncc(-c2cc(N)cc(C(=O)N[C@@H](C)c3ccccc3)c2)n(CC(=O)NCc2ccc(C(=N)N)cc2)c1=O [Example 57]	<50.0 µM
< 30 µM	< 0.1 µM	> 30 µM	CC(C)Nc1ncc(-c2cc(N)cc(C(=O)N[C@H](C)c3ccccc3)c2)n(CC(=O)NCc2ccc(C(=N)N)cc2)c1=O [Example 58]	<50.0 µM
> 30 µM	> 0.1 µM	> 30 µM	CC(C)Nc1ncc(-c2cc(N)cc(C(=O)NCc3cc(C(F)(F)F)cc(C(F)(F)F)c3)c2)n(CC(=O)NCc2ccc(C(=N)N)cc2)c1=O [Example 59]	>50.0 µM
> 30 µM	< 0.1 µM	> 30 µM	CC(C)Nc1ncc(-c2cc(N)cc(C(=O)NCc3cccnc3)c2)n(CC(=O)NCc2ccc(C(=N)N)cc2)c1=O [Example 61]	<50.0 µM
< 30 µM	–	–	CC[C@H](C)NC(=O)c1cc(N)cc(-c2cnc(NC(C)C)c(=O)n2CC(=O)NCc2ccc(C(=N)N)cc2)c1 [Example 71]	<50.0 µM

Further lines, the compound ahead of its results:

Compound	IC50 [1]	IC50 [2]	IC50 [4]	PT (Prothrombin time) 2xPT [3]
CC(C)Nc1nc(Br)c(-c2cc(N)cc(C(=O)O)c2)n(CC(=O)NCc2ccc(C(=N)N)cc2)c1=O [Example 3, 3-Amino-5-[1-[2-({4-[amino(imino)methyl]benzyl}amino)-2-oxoethyl]-3-bromo-5-(isopropylamino)-6-oxo-1,6-dihydropyrazin-2-yl]benzoic Acid]	–	< 0.1 µM	> 30 µM	<50.0 µM
CC(C)CCNC(=O)c1cc(N)cc(-c2cnc(NC(C)C)c(=O)n2CC(=O)NCc2ccc(C(=N)N)cc2)c1.O=C(O)C(F)(F)F.O=C(O)C(F)(F)F [Example 6]	> 30 µM	< 0.1 µM	> 30 µM	<50.0 µM
CCC(C)NC(=O)c1cc(N)cc(-c2cnc(NC(C)C)c(=O)n2CC(=O)NCc2ccc(C(=N)N)cc2)c1.O=C(O)C(F)(F)F.O=C(O)C(F)(F)F (stereo not shown) [Example 7]	< 30 µM	< 0.1 µM	> 30 µM	<50.0 µM
CC(C)Nc1ncc(-c2cc(N)cc(C(=O)NCc3cccc(C(F)(F)F)c3)c2)n(CC(=O)NCc2ccc(C(=N)N)cc2)c1=O.O=C(O)C(F)(F)F.O=C(O)C(F)(F)F [Example 10]	> 30 µM	< 0.1 µM	> 30 µM	<50.0 µM
CC(C)Nc1ncc(-c2cc(N)cc(C(=O)NC3CCC3)c2)n(CC(=O)NCc2ccc(C(=N)N)cc2)c1=O.O=C(O)C(F)(F)F.O=C(O)C(F)(F)F [Example 15]	< 30 µM	< 0.1 µM	> 30 µM	<50.0 µM
CC(C)Nc1ncc(-c2cc(N)cc(C(=O)NCc3ccccc3)c2)n(CC(=O)NCc2ccc(C(=N)N)cc2)c1=O.O=C(O)C(F)(F)F.O=C(O)C(F)(F)F [Example 24]	> 30 µM	< 0.1 µM	> 30 µM	<50.0 µM
CC(C)Nc1ncc(-c2cc(N)cc(C(=O)N(C)Cc3ccccc3)c2)n(CC(=O)NCc2ccc(C(=N)N)cc2)c1=O.O=C(O)C(F)(F)F.O=C(O)C(F)(F)F [Example 28]	> 30 µM	< 0.1 µM	> 30 µM	<50.0 µM
CC(C)Nc1ncc(-c2cc(N)cc(NC3CCCC3)c2)n(CC(=O)NCc2ccc(C(=N)N)cc2)c1=O.O=C(O)C(F)(F)F.O=C(O)C(F)(F)F [Example 148]	–	< 0.1 µM	–	<50.0 µM
CC(C)Nc1nc(Cl)c(-c2cc(N)cc(O)c2)n(CC(=O)NCc2ccc(C(=N)N)cc2)c1=O.O=C(O)C(F)(F)F [Example 178]	–	< 0.1 µM	> 30 µM	<50.0 µM
CC[C@H](C)NC(=O)c1cc(N)cc(-c2cnc(NC3CC3)c(=O)n2CC(=O)NCc2ccc(C(=N)N)cc2)c1.O=C(O)C(F)(F)F.O=C(O)C(F)(F)F [Example 184]	< 30 µM	–	–	<50.0 µM
CC(C)Nc1ncc(-c2cc(N)c3[nH]ccc3c2)n(CC(=O)NCc2ccc(C(=N)N)cc2)c1=O.O=C(O)C(F)(F)F.O=C(O)C(F)(F)F [Example 249]	> 30 µM	< 0.1 µM	–	<50.0 µM
N=C(N)c1ccc(CNC(=O)Cn2c(-c3cc(N)cc(C(=O)OCc4ccccc4)c3)cnc(NC3CC3)c2=O)cc1.O=C(O)C(F)(F)F [Example 251]	> 30 µM	< 0.1 µM	–	<50.0 µM
CC[C@@H](C)NC(=O)c1cc(N)cc(-c2cnc(NC(C)C)c(=O)n2CC(=O)NCc2ccc(C(=N)N)c(O)c2)c1.O.O.O=C(O)C(F)(F)F [Example 254]	> 30 µM	< 0.1 µM	–	<50.0 µM
